{
  "source": "patent US20260028364A1",
  "about": "“CATIONIC CHROMENONES AND THEIR USE IN ONCOLOGY” (FLORATEK PHARMA S.A., priority 2022, published 2026)",
  "type_in_all_cases": "cell-based",
  "key": {"Wnt/Beta-Catenin": {"test_system": "Wnt/Beta-Catenin", "test": "SelectScreen CellSensor pathway inhibition, Wnt/Beta-Catenin", "conditions": "Homo sapiens, HCT-116; LEF-TCF-bla HCT116, no stimulus (constitutively activated)", "protocol": "(§1) Inhibition of various cellular pathways known to be involved in malignancy was tested using the SelectScreen Cell-based Pathway Profiling GeneBLAzer™ cell signaling pathway specific CellSensor™ cell lines ((Thermo Fisher). The assay is based on a beta-lactamase reporter activity which is modulated and can be measured quantitatively and selectively with the LiveBLAzer™-FRET B/G Loading Substrate. SelectScreen Cell-Based Pathway Profiling Service uses XLfit from IDBS. The dose response curve is curve fit to model number 205 (sigmoidal dose-response model). Custom logic was built by Thermo Fisher for the data analysis tool to address the different compound characteristics that can be observed with functional assays.\nWnt/Beta-Catenin—LEF-TCF-bla HCT116—Inhibitor Screen, Constitutively Activated\nLEF-TCF-bla HCT116 cells are thawed and resuspended in Assay Media (OPTI-MEM, 0.5% dialyzed FBS, 0.1 mM NEAA, 1 mM Sodium Pyruvate, 100 U/mL/100 μg/mL Pen/Strep) to a concentration of 312,500 cells/mL. 32 μL of cell suspension is added to each well of a 384-well Poly-D-Lysine assay plate. Cells in Assay Media are incubated for 16-24 hours in the plate at 37° C./5% CO2 in a humidified incubator. 4 μL of a 10× serial dilution of ICG-001 (control inhibitor starting concentration, 25,000 nM) or compounds are added to appropriate wells of the plate. […] The plate is read on a fluorescence plate reader."}, "SK-Mel-5": {"test_system": "SK-Mel-5", "test": "Caspase-Glo 3/7 apoptosis assay, SK-Mel-5", "conditions": "SK-Mel-5 cells, 1 μM, 24 h", "protocol": "(§2) Apoptosis activity was evaluated using Caspase-Glo 3/7 Assay kit (Promega-G8091) according to the manufacturer's instructions. Cells were grown as above and harvested from exponential phase cultures, counted and plated in 96 black well flat-bottom microtiter plates at a cell density depending on the cell line's growth rate (3,000-10,000 cells/well depending on the cell line's growth rate). Following an overnight incubation, compounds were added to the cell plates at various concentrations (highest at […]) with the DMSO concentration maintained at 0.1% for a 24 h period treatment. 100 μL of Caspase-Glo 3/7 Reagent was added to each well of 96-well plate containing 100 μL culture medium, and after 30 min at room temperature, luminescence was measured with the microplate luminometer (EnVision Perkin Elmer). The induced relative Caspase 3/7 activity of the tested compounds was determined by the following formula: Relative Caspase 3/7 activity (fold increase)=(RLU compound−RLU blank)/(RLU control−RLU blank)."}, "A2058": {"test_system": "A2058", "test": "Caspase-Glo 3/7 apoptosis assay, A2058", "conditions": "A2058 cells, 10 μM, 24 h", "protocol": "as §2"}, "Oxidative Stress": {"test_system": "Oxidative Stress", "test": "SelectScreen CellSensor pathway inhibition, Oxidative Stress", "conditions": "Homo sapiens; ARE-bla HepG2, stimulus tBHQ", "protocol": "as §1\nOxidative Stress—ARE-bla HepG2—Inhibitor Screen, Activated by tBHQ\nARE-bla HepG2 cells are thawed and resuspended in Assay Media (DMEM, 10% dialyzed FBS, 25 mM HEPES pH 7.3, 0.1 mM NEAA, 100 U/mL/100 μg/mL Pen/Strep) to a concentration of 375,000 cells/mL. 32 μL of cell suspension is added to each well of a 384-well Poly-D-Lysine assay plate. Cells in Assay Media are incubated for 16-24 hours in the plate at 37° C./5% CO2 in a humidified incubator. […] The plate is read on a fluorescence plate reader."}, "LoVo": {"test_system": "LoVo", "test": "CellTiter-Glo cell viability, LoVo", "conditions": "Homo sapiens; LoVo cells, 72 h with compound", "protocol": "(§3) Antitumor activity against a panel of cancer cell lines Antitumor activity of the compounds was assessed by using the CellTiter-Glow® Luminescent Cell Viability assay (Promega #G7572) according to the manufacturer's instructions. The compounds were tested at 5 or 6 concentrations in 1:2 dilution increments (highest concentration 10 µM) in triplicate well conditions.\n(§4) Tumor cells were grown at 37° C. in a humidified atmosphere with 5% CO2 in RPMI 1640 or DMEM medium, supplemented with 10% (v/v) fetal calf serum and 50 μg/ml gentamicin for up to 20 passages, and were passaged once or twice weekly. Cells were harvested using TrypLE or PBS buffer containing 1 mM EDTA, and the percentage of viable cells is determined using a cell counter.\n(§5) Cells were harvested from exponential phase cultures, counted and plated in 96 well flat-bottom microtiter plates at a cell density depending on the cell line's growth rate (4,000-20,000 cells/well depending on the cell line's growth rate) in RPMI 1640 or DMEM medium supplemented with 10% (v/v) fetal calf serum and 50 μg/ml gentamicin (140 μl/well). Cultures were incubated at 37° C. and 5% CO2 in a humidified atmosphere. […] Viability of cells was quantified by the CellTiter-Glow® Luminescent Cell Viability assay (Promega #G7572). Luminescence was measured with the microplate luminometer (En Vision Perkin Elmer). […]"}, "Kelly": {"test_system": "Kelly", "test": "CellTiter-Glo cell viability, Kelly", "conditions": "Kelly cells, 72 h with compound", "protocol": "as §3, §4\n(§6) Cells were harvested from exponential phase cultures, counted and plated in 96 well flat-bottom microtiter plates at a cell density depending on the cell line's growth rate (4,000-20,000 cells/well depending on the cell line's growth rate) in RPMI 1640 or DMEM medium supplemented with 10% (v/v) fetal calf serum and 50 μg/ml gentamicin (140 μl/well). Cultures were incubated at 37° C. and 5% CO2 in a humidified atmosphere. After 24 h, 10 μl of test compounds or control medium are added, and left on the cells for another 72 h. Compounds were serially diluted in DMSO, transferred in cell culture medium, and added to the assay plates. The DMSO concentration was kept constant at <0.2% v/v across the assay plate. Viability of cells was quantified by the CellTiter-Glow® Luminescent Cell Viability assay (Promega #G7572). Luminescence was measured with the microplate luminometer (En Vision Perkin Elmer).\n(§7) Sigmoidal concentration-response curves were fitted to the data points (test-versus-control, T/C values) obtained for each tumor model using Graph Pad prism 5.02 software. IC50 values are reported as absolute IC50 values, being the concentration of test compound at the intersection of the concentration-response curves with T/C=50%."}, "NCI-H1299": {"test_system": "NCI-H1299", "test": "CellTiter-Glo cell viability, NCI-H1299", "conditions": "Homo sapiens, NCI-H1299; H1299 cells, 72 h with compound", "protocol": "as §3, §4, §6, §7"}, "Raji": {"test_system": "Raji", "test": "CellTiter-Glo cell viability, Raji", "conditions": "Homo sapiens; Raji cells, 72 h with compound", "protocol": "as §3, §4, §5"}, "MDA-MB-468": {"test_system": "MDA-MB-468", "test": "Caspase-Glo 3/7 apoptosis assay, MDA-MB-468", "conditions": "MDA-MB-468 cells, 10 μM, 24 h", "protocol": "as §2"}},
  "data": [
    {"compound": "COc1ccc2c(=O)c(-c3ccc(CCCC[P+](c4ccccc4)(c4ccccc4)c4ccccc4)cc3)coc2c1OC.[Br-]", "note": "[SND470, (4-(4-(7,8-Dimethoxy-4-oxo-4H-chromen-3-yl)phenyl)butyl)triphenylphosphonium bromide]", "values": [
      {"measurement": "IC50", "setting": "Wnt/Beta-Catenin", "value": 970, "unit": "nM"},
      {"measurement": "Fold activation of Caspase 3/7", "setting": "SK-Mel-5", "value": 7.22, "unit": "Fold"},
      {"measurement": "Fold activation of Caspase 3/7", "setting": "A2058", "value": 3.87, "unit": "Fold"},
      {"measurement": "IC50", "setting": "Oxidative Stress", "value": 1350, "unit": "nM"},
      {"measurement": "IC50", "setting": "LoVo", "value": 910, "unit": "nM"},
      {"measurement": "IC50", "setting": "Kelly", "value": 12, "unit": "nM"},
      {"measurement": "IC50", "setting": "NCI-H1299", "value": 40, "unit": "nM"},
      {"measurement": "IC50", "setting": "Raji", "value": 530, "unit": "nM"},
      {"measurement": "Fold activation of Caspase 3/7", "setting": "MDA-MB-468", "value": 3.15, "unit": "Fold"}
    ]}
  ]
}
